The text below walks through data of patent publication EP4660182A1, “NAV1.7- AND/OR NAV1.8-INHIBITING ARYL PYRIDINE COMPOUNDS, PROCESSES FOR THE PREPARATION THEREOF, COMPOSITIONS, USES, METHODS FOR TREATMENT USING SAME, AND KITS” (Eurofarma Laboratórios S.A., priority 2023, dated 2024).

In assay [1] the target is T1, human sodium channels Nav 1.8 (Homo sapiens, UniProt Q9Y5Y9).
T1 construct: expressed in transfected cells
In words: Automated whole-cell voltage-clamp (ScreenPatch 384P) sodium current block, Nav 1.8. The class given is cell-based. Particulars: CHO cells stably expressing human Nav 1.8; inactivation step -40 mV 8 s, test step 10 mV (TP1A); eight concentrations; exposure at least five minutes; room temperature; read-out: Nav1.8 IC50. Summed up: (§1)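 Stable CHO lines, whole-cell automated patch clamp at room temperature, ≥5 min exposure, eight concentrations. From -100 mV hold, 8 s at -40 mV, 20 ms at -100 mV, then test pulse to 10 mV (Nav 1.8) or 0 mV (Nav 1.7) at 0.05 Hz; peak-current % block fitted for IC50, averaged over repeats.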

In assay [2] the target is T2, human sodium channels Nav 1.7 (Homo sapiens, UniProt Q15858).
T2 construct: expressed in transfected cells
T2 sequence (Q15858 whole entry): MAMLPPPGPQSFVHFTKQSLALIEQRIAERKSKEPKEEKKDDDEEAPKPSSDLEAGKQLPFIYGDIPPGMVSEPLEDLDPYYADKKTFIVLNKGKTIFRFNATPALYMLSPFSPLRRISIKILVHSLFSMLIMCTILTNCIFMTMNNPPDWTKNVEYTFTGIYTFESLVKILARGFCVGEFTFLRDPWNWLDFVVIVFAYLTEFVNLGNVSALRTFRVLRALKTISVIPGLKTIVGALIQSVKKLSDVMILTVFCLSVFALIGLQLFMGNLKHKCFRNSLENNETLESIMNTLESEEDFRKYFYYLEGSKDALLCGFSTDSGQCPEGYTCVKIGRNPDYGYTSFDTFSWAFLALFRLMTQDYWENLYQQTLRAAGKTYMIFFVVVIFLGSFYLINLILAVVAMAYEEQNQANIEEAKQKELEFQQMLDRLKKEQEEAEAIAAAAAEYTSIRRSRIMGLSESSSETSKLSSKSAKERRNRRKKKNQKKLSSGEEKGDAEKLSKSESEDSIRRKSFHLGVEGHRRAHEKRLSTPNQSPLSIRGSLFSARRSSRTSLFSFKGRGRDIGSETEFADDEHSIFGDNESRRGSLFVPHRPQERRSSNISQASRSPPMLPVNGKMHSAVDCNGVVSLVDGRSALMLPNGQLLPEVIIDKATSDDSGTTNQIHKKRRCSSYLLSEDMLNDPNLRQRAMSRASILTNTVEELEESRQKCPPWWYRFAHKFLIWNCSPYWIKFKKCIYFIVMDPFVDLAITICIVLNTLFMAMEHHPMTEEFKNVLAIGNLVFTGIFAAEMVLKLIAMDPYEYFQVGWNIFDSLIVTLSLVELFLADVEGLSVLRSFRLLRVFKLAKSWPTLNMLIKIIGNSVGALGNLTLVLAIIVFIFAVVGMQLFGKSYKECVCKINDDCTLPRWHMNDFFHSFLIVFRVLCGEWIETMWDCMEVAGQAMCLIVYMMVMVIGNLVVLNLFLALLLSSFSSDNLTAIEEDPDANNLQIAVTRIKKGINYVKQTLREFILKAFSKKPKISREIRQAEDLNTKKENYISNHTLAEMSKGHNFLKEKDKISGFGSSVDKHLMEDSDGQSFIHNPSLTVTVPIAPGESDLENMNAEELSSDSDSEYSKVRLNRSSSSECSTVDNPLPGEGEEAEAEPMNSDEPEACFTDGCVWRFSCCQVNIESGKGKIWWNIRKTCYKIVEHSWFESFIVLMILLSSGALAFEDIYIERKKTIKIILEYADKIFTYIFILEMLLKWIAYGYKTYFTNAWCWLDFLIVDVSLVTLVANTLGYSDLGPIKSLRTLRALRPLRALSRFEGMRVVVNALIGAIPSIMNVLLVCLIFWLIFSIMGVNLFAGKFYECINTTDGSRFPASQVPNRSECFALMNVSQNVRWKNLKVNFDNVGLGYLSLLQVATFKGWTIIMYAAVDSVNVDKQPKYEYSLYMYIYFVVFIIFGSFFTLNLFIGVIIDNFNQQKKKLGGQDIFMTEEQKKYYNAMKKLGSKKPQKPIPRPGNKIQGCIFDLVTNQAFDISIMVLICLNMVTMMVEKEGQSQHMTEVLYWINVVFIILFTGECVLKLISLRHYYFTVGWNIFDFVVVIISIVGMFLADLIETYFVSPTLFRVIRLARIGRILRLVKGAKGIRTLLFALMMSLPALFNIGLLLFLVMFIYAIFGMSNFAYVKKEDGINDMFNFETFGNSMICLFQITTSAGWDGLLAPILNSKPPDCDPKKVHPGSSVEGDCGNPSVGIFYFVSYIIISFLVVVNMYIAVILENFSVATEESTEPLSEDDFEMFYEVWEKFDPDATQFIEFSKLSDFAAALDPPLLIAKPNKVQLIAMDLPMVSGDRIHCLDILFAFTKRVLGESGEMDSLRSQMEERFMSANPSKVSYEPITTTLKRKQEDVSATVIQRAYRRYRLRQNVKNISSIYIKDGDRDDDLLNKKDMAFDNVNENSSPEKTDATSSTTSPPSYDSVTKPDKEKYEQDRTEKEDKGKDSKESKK
The assay can be described thus: Automated whole-cell voltage-clamp (ScreenPatch 384P) sodium current block, Nav 1.7. The class given is cell-based. The settings on record: CHO cells stably expressing human Nav 1.7; inactivation step -40 mV 8 s, test step 0 mV (TP1A); eight concentrations; exposure at least five minutes; room temperature; read-out: Nav1.7 IC50. Summed up:
as §1

T1 sequence (Q9Y5Y9 whole entry): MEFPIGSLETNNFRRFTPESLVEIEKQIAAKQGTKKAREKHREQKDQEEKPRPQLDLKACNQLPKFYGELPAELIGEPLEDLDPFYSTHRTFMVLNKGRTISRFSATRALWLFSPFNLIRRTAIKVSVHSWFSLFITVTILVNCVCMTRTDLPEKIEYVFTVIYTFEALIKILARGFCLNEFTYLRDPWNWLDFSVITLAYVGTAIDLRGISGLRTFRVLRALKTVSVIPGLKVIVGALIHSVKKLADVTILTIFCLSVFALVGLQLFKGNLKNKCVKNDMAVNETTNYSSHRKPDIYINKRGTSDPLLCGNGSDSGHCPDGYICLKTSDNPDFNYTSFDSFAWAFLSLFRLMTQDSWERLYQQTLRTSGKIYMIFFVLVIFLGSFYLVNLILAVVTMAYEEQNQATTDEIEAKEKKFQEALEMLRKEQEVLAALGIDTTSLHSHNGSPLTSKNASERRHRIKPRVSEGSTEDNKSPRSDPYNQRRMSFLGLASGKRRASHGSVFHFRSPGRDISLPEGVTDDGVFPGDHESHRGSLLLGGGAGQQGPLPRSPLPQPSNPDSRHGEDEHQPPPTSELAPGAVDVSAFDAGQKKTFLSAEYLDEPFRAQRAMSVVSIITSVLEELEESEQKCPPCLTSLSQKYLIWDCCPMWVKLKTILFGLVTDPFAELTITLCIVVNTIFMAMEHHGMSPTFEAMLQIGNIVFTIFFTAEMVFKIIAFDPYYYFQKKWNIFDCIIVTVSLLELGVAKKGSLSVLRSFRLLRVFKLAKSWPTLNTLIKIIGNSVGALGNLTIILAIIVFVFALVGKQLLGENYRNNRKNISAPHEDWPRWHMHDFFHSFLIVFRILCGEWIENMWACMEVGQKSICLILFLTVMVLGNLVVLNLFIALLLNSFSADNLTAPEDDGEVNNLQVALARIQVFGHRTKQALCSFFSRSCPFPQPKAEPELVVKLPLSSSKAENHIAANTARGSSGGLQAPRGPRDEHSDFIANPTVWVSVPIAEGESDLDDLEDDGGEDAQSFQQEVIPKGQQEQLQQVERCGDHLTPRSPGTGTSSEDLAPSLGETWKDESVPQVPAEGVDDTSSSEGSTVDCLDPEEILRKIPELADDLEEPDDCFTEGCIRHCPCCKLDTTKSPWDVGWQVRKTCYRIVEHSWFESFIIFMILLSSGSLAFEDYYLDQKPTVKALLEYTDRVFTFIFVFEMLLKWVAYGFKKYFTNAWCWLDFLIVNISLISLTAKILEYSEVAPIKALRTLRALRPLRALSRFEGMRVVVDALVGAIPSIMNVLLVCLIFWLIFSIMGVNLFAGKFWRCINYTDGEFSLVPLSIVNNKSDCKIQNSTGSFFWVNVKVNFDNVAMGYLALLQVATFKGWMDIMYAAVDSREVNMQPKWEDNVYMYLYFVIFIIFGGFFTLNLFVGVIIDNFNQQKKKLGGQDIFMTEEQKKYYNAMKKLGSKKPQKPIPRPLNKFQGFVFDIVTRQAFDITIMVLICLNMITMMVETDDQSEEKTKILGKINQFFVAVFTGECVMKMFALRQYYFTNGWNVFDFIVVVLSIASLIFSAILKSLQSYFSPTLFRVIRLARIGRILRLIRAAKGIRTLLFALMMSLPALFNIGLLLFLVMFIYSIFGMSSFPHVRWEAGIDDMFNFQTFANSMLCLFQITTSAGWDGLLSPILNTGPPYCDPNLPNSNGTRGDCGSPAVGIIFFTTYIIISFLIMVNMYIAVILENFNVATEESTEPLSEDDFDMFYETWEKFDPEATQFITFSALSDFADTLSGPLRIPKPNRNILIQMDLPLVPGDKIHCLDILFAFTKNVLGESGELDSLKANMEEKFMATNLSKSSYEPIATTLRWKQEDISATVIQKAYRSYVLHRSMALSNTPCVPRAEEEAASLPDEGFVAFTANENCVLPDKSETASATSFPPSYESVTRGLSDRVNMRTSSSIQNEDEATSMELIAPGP

As to `CN(C)c1ccc(F)c(/C=N/NC(=O)c2cncc(-c3ccc(OC(F)F)nc3)n2)c1` [Compound 104, (E)-6-(6-(difluoromethoxy)pyridine-3-yl)-N'-(5-(dimethylamino)-2-fluorobenzylidene) pyrazine-2-carbohydrazide], the IC50 was < 500 nM in assay [1] and > 1000 nM in assay [2].

As to `[2H]C([2H])([2H])Oc1cnc(F)c(/C=N/NC(=O)c2cncc(-c3ccc(OCC)nc3)n2)c1` [Compound 171, (E)-6-(6-ethoxypyridine-3-yl)-N'-((2-fluoro-5-(methoxy-d3)pyridine-3-yl)methylene) pyrazine-2-carbohydrazide], the IC50 is < 500 nM in assay [1] and > 1000 nM in assay [2].

Take `CCOc1ccc(-c2cncc(C(=O)N/N=C/c3cc(OC)cc(O)c3F)n2)cn1` [Compound 44, (E)-6-(6-ethoxypyridine-3-yl)-N'-(2-fluoro-3-hydroxy-5-methoxybenzylidene) pyrazine-2-carbohydrazide]: the IC50 in assay [1] and in assay [2] was > 1000 nM each time.

Consider `CCOc1ccc(-c2cncc(C(=O)N/N=C/c3cc(OC4CN(C)C4)ccc3F)n2)cn1` [Compound 39, (E)-6-(6-ethoxypyridine-3-yl)-N'-(2-fluoro-5-((1-methylazetidine-3-yl)oxy)benzylidene) pyrazine-2-carbohydrazide], for which the IC50 in assay [1] and in assay [2] was > 1000 nM each time.

On to `COc1ccc(F)c(/C=N/NC(=O)c2cncc(-c3ccc(OCCO)nc3)n2)c1` [Compound 137, (E)-N'-(2-fluoro-5-methoxybenzylidene)-6-(6-(2-hydroxyethoxy)pyridine-3-yl)pyrazine-2-carbohydrazide], for which the IC50 in assay [1] and in assay [2] was > 1000 nM each time.

Consider `COc1ccc(F)c(/C=N/NC(=O)c2nc(-c3ccc(OC(F)(F)F)nc3)cnc2O)c1` [Compound 99, (E)-N'-(2-fluoro-5-methoxybenzylidene)-3-hydroxy-6-(6-(trifluoromethoxy)pyridine-3-yl)pyrazine-2-carbohydrazide], for which the IC50 in assay [1] and in assay [2] was > 1000 nM each time.

As for `CN(C)c1cnc(F)c(/C=N/NC(=O)c2cncc(-c3ccc(OC(F)F)nc3)n2)c1` [Compound 105, (E)-6-(6-(difluoromethoxy)pyridine-3-yl)-N'-((5-(dimethylamino)-2-fluoropyridine-3-yl)methylene)pyrazine-2-carbohydrazide], the IC50 in assay [1] and in assay [2] was > 1000 nM each time.
